Results on 15 molecules are retold here after patent US20240409585A1, “MACROCYCLIC IMMUNOMODULATORS” (priority 2021, published 2024).

The target in the experiment is T1, PE-labeled human PD-L1-Ig binding to Jurkat cell line over-expressing human PD-1 (Jurkat-PD-1) (Homo sapiens, UniProt Q15116).
T1 construct: expressed in transfected cells; host or cells: Jurkat
Nature of the experiment: Jurkat-PD-1 Cell Binding High-Content Screening Assay (CBA): Method 1. The settings on record: Jurkat-hPD-1 cells, PE-labeled PD-L1-Ig 20 nM final.

Where [1] appears, read: read-out: Jurkat HPDL1 PD1 IC50 (uM) (Method 1).

Like-named read-outs stand apart in the source and are kept apart here. Bridge positions count the residues as written; N and C are the ends. Square brackets hold non-standard residues; d marks the D form. Peptide text beside a SMILES is read from it. * marks the point of attachment. ξ: configuration not given here. Ala(indol-4-yl) = N[C@@H](Cc1cccc2[nH]ccc12)C(=O)O; Phe(4-COOH) = N[C@@H](Cc1ccc(C(=O)O)cc1)C(=O)O; Asp(3,3-Me2) = CC(C)(C(=O)O)[C@H](N)C(=O)O; Bip = N[C@@H](Cc1ccc(-c2ccccc2)cc1)C(=O)O; Phe(3-Me) = Cc1cccc(C[C@H](N)C(=O)O)c1; Bta = N[C@@H](Cc1csc2ccccc12)C(=O)O; Val(3-OH) = CC(C)(O)[C@H](N)C(=O)O; 4Pal = N[C@@H](Cc1ccncc1)C(=O)O; Cha = N[C@@H](CC1CCCCC1)C(=O)O; Cit = NC(=O)NCCC[C@H](N)C(=O)O; Ile(3ξ) = CCC(C)[C@H](N)C(=O)O; Thr(3ξ) = CC(O)[C@H](N)C(=O)O; Carboxymethyl = O=C(O)C*; NMeA = CN[C@@H](C)C(=O)O; Orn = NCCC[C@H](N)C(=O)O; Dab = NCC[C@H](N)C(=O)O; Dap = NC[C@H](N)C(=O)O; Ac3c = NC1(C(=O)O)CC1

T1 sequence (Q15116 25-288): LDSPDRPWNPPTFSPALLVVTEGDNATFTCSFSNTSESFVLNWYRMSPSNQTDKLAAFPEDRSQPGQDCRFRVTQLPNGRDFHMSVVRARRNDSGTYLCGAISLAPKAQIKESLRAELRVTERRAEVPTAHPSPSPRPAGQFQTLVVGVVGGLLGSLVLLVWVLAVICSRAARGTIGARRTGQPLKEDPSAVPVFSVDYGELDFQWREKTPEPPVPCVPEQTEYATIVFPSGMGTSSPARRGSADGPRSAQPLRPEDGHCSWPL

As for `Cc1cccc(C[C@@H]2NC(=O)[C@H](CC(=O)O)NC(=O)[C@H](Cc3ccc(OCC(=O)O)cc3)NC(=O)[C@H](CN)NC(=O)CSC[C@@H](C(=O)N[C@@H](C)C(N)=O)NC(=O)[C@H](CO)NC(=O)[C@H](Cc3ccccc3)NC(=O)[C@H](CC(C)C)NC(=O)[C@H](CC(N)=O)NC(=O)[C@@H](CC(C)C)NC(=O)[C@H](C)N(C)C(=O)[C@H](Cc3ccccc3)NC(=O)[C@H](Cc3ccc(-c4ccccc4)cc3)NC(=O)[C@H](CC(C)C)NC2=O)c1` [Compound 1586] ({CH2CO}-[Dap]Y(Carboxymethyl)D[Phe(3-Me)]L[Bip]F[NMeA][dL]NLFSCA-NH2; thioether N-14), for the setting “Jurkat HPDL1 PD1 IC50 (uM) (Method 1)”, the IC50 (usually the concentration that inhibits the measured activity by half) was found to be 0.54 µM. For the molecule `CC(C)C[C@@H]1NC(=O)[C@H](Cc2c[nH]c3ccccc23)NC(=O)[C@H](CC(=O)O)NC(=O)[C@H](Cc2ccc(O)cc2)NC(=O)[C@H](Cc2ccccc2)NC(=O)CSC[C@@H](C(=O)N[C@@H](C)C(N)=O)NC(=O)[C@H](CO)NC(=O)[C@H](CCCN)NC(=O)[C@H](CC(C)C)NC(=O)[C@H](CC(N)=O)NC(=O)[C@@H](C)NC(=O)[C@H](C)N(C)C(=O)[C@H](C(C)C)NC(=O)[C@H](Cc2ccc(-c3ccccc3)cc2)NC1=O` [Compound 1530] ({CH2CO}-FYDWL[Bip]V[NMeA][dA]NL[Orn]SCA-NH2; thioether N-14), under setting [1], the IC50 was determined as 0.03 µM. `CC(C)C[C@@H]1NC(=O)CSC[C@@H](C(=O)N[C@@H](C)C(N)=O)NC(=O)[C@H](CO)NC(=O)[C@H](C(C)C)NC(=O)[C@H](CC(C)C)NC(=O)[C@H](CCCNC(=N)N)NC(=O)[C@H](Cc2csc3ccccc23)NC(=O)[C@H](C)N(C)C(=O)[C@H](CCCNC(=N)N)NC(=O)[C@H](Cc2ccc(-c3ccccc3)cc2)NC(=O)[C@H](C(C)C)NC(=O)[C@H](Cc2c[nH]c3ccccc23)NC(=O)[C@H](CC(=O)O)NC(=O)[C@H](Cc2ccc(O)cc2)NC1=O` [Compound 1041] ({CH2CO}-LYDWV[Bip]R[NMeA][Bta]RLVSCA-NH2; thioether N-14): the IC50 under setting [1] was found to be 0.31 µM. Same read-out and setting: next, `CC(C)C[C@@H]1NC(=O)[C@H](CCCNC(=N)N)NC(=O)[C@@H](Cc2ccccc2)NC(=O)[C@H](C)N(C)C(=O)[C@H](CCCNC(=N)N)NC(=O)[C@H](Cc2ccc(-c3ccccc3)cc2)NC(=O)[C@H](C(C)C)NC(=O)[C@H](Cc2c[nH]c3ccccc23)NC(=O)[C@H](CC(=O)O)NC(=O)[C@H](Cc2ccncc2)NC(=O)[C@H](CC(N)=O)NC(=O)CSC[C@@H](C(=O)N[C@@H](C)C(N)=O)NC(=O)[C@H]([C@@H](C)O)NC(=O)[C@H](C(C)C)NC1=O` [Compound 1162] ({CH2CO}-N[4Pal]DWV[Bip]R[NMeA][dF]RLVTCA-NH2; thioether N-14): 0.22 µM. With `CC(C)C[C@@H]1NC(=O)[C@H](Cc2c[nH]c3ccccc23)NC(=O)[C@H](CC(=O)O)NC(=O)[C@H](Cc2ccc(OCC(=O)O)cc2)NC(=O)[C@H](Cc2ccccc2)NC(=O)CSC[C@@H](C(=O)N[C@@H](C)C(N)=O)NC(=O)[C@H](CO)NC(=O)[C@H](C(C)C)NC(=O)[C@H](CC(C)C)NC(=O)[C@H](CC(N)=O)NC(=O)[C@@H](C)NC(=O)[C@H](C)N(C)C(=O)[C@H](C(C)C)NC(=O)[C@H](Cc2ccc(-c3ccccc3)cc2)NC1=O` [Compound 1737] ({CH2CO}-FY(Carboxymethyl)DWL[Bip]V[NMeA][dA]NLVSCA-NH2; thioether N-14), the IC50 under setting [1] is 0.02 µM. The same measure, in the same setting: next, `CC(C)C[C@@H]1NC(=O)[C@H](Cc2c[nH]c3ccccc23)NC(=O)[C@H](CC(=O)O)NC(=O)[C@H](Cc2ccc(C(=O)O)cc2)NC(=O)[C@H](Cc2ccc(OCC(=O)O)cc2)NC(=O)CSC[C@@H](C(=O)NCC(N)=O)NC[C@H](CO)NC(=O)[C@H](C(C)C)NC(=O)[C@H](CC2CCCCC2)NC(=O)[C@H](CC(N)=O)NC(=O)[C@@H](CC(C)C)NC(=O)[C@H](C)N(C)C(=O)[C@H](C(C)C)NC(=O)[C@H](Cc2ccc(-c3ccccc3)cc2)NC1=O` [Compound 1623]: 0.19 µM.

Take `CC(C)C[C@@H]1NC(=O)[C@H](CCN)NC(=O)[C@@H](CC(C)C)NC(=O)[C@H](C)N(C)C(=O)[C@H](CCCNC(N)=O)NC(=O)[C@H](Cc2ccc(-c3ccccc3)cc2)NC(=O)[C@H](C(C)C)NC(=O)[C@H](Cc2c[nH]c3ccccc23)NC(=O)[C@H](CC(=O)O)NC(=O)[C@H](Cc2ccc(O)cc2)NC(=O)[C@H](Cc2cnc[nH]2)NC(=O)CSC[C@@H](C(=O)N[C@@H](C)C(N)=O)NC(=O)[C@H]([C@@H](C)O)NC(=O)[C@H](C(C)C)NC1=O` [Compound 1356] ({CH2CO}-HYDWV[Bip][Cit][NMeA][dL][Dab]LVTCA-NH2; thioether N-14): under setting [1], the IC50 amounted to 0.02 µM. Consider `CCC(C)[C@@H]1NC(=O)[C@H](Cc2ccc(-c3ccccc3)cc2)NC(=O)[C@H](CC(C)C)NC(=O)[C@H](Cc2c[nH]c3ccccc23)NC(=O)[C@H](CC(=O)O)NC(=O)[C@H](Cc2ccc(C(=O)O)cc2)NC(=O)[C@H](Cc2ccc(OCC(=O)O)cc2)NC(=O)CSC[C@@H](C(=O)N[C@@H](CC(N)=O)C(N)=O)NC(=O)[C@H](CO)NC(=O)[C@H](C(C)(C)O)NC(=O)[C@H](CC2CCCCC2)NC(=O)[C@H](CCN)NC(=O)[C@@H](CC(C)C)NC(=O)[C@H](C)N(C)C1=O` (stereo partly drawn) [Compound 1916] ({CH2CO}-Y(Carboxymethyl)[Phe(4-COOH)]DWL[Bip][Ile(3ξ)][NMeA][dL][Dab][Cha][Val(3-OH)]SCN-NH2; thioether N-14), for which the IC50 under setting [1] amounted to 0.02 µM.

As to `CCC(C)[C@@H]1NC(=O)[C@H](Cc2ccc(-c3ccccc3)cc2)NC(=O)[C@H](C(C)C)NC(=O)[C@H](Cc2c[nH]c3ccccc23)NC(=O)[C@H](CC(=O)O)NC(=O)[C@H](Cc2ccc(O)cc2)NC(=O)[C@H](Cc2cccc3[nH]ccc23)NC(=O)CSC[C@@H](C(=O)N[C@@H](C)C(N)=O)NC(=O)[C@H](C(C)O)NC(=O)[C@H](C(C)C)NC(=O)[C@H](CC2CCCCC2)NC(=O)[C@H](CCN)NC(=O)[C@@H](CC(C)C)NC(=O)[C@H](C)N(C)C1=O` (stereo partly drawn) [Compound 2053] ({CH2CO}-[Ala(indol-4-yl)]YDWV[Bip][Ile(3ξ)][NMeA][dL][Dab][Cha]V[Thr(3ξ)]CA-NH2; thioether N-14), the IC50 under setting [1] was determined as 0.03 µM. Same read-out and setting: then `Cc1cccc(C[C@@H]2NC(=O)[C@H](CC(=O)O)NC(=O)[C@H](Cc3ccc(OCC(=O)O)cc3)NC(=O)[C@H](CCN)NC(=O)CSC[C@@H](C(=O)N[C@@H](CCN)C(N)=O)NC(=O)[C@H](CO)NC(=O)[C@H](C(C)(C)O)NC(=O)[C@H](CC3CCCCC3)NC(=O)[C@H](CCN)NC(=O)[C@@H](CC(C)C)NC(=O)[C@H](C)N(C)C(=O)[C@H](C(C)(C)C(=O)O)NC(=O)[C@H](Cc3ccc(-c4ccccc4)cc3)NC(=O)[C@H](Cc3ccc(OCC(=O)O)cc3)NC2=O)c1` [Compound 1846] ({CH2CO}-[Dab]Y(Carboxymethyl)D[Phe(3-Me)]Y(Carboxymethyl)[Bip][Asp(3,3-Me2)][NMeA][dL][Dab][Cha][Val(3-OH)]SC[Dab]-NH2; thioether N-14), with 0.02 µM; and `Cc1cccc(C[C@@H]2NC(=O)[C@H](CC(=O)O)NC(=O)[C@H](Cc3ccc(OCC(=O)O)cc3)NC(=O)[C@H](Cc3ccncc3)NC(=O)CSC[C@@H](C(=O)N[C@@H](C)C(N)=O)NC(=O)[C@H]([C@@H](C)O)NC(=O)[C@H](C(C)C)NC(=O)[C@H](CC(C)C)NC(=O)[C@H](CCN)NC(=O)[C@@H](CC(C)C)NC(=O)[C@H](C)N(C)C(=O)[C@H](CCCNC(N)=O)NC(=O)[C@H](Cc3ccc(-c4ccccc4)cc3)NC(=O)[C@H](C(C)C)NC2=O)c1` [Compound 1421] ({CH2CO}-[4Pal]Y(Carboxymethyl)D[Phe(3-Me)]V[Bip][Cit][NMeA][dL][Dab]LVTCA-NH2; thioether N-14), with 0.01 µM. The same measure, in the same setting: then `Cc1cccc(C[C@@H]2NC(=O)[C@H](CC(=O)O)NC(=O)[C@H](Cc3ccc(OCC(=O)O)cc3)NC(=O)[C@H]([C@@H](C)O)NC(=O)CSC[C@@H](C(=O)NC3(C(N)=O)CC3)NC(=O)[C@H](CO)NC(=O)[C@H](C(C)C)NC(=O)[C@H](CC3CCCCC3)NC(=O)[C@H](CCN)NC(=O)[C@@H](CC(C)C)NC(=O)[C@H](C)N(C)C(=O)[C@H](Cc3ccc(OCC(=O)O)cc3)NC(=O)[C@H](Cc3ccc(-c4ccccc4)cc3)NC(=O)[C@H](Cc3ccc(OCC(=O)O)cc3)NC2=O)c1` [Compound 1862] ({CH2CO}-TY(Carboxymethyl)D[Phe(3-Me)]Y(Carboxymethyl)[Bip]Y(Carboxymethyl)[NMeA][dL][Dab][Cha]VSC[Ac3c]-NH2; thioether N-14), with 0.04 µM; and `CC(C)C[C@@H]1NC(=O)[C@H](CCCNC(=N)N)NC(=O)[C@@H](CC(N)=O)NC(=O)[C@H](C)N(C)C(=O)[C@H](CCCNC(=N)N)NC(=O)[C@H](Cc2ccc(-c3ccccc3)cc2)NC(=O)[C@H](C(C)C)NC(=O)[C@H](Cc2c[nH]c3ccccc23)NC(=O)[C@H](CC(=O)O)NC(=O)[C@H](Cc2ccc(O)cc2)NC(=O)[C@H](Cc2ccccc2)NC(=O)CSC[C@@H](C(=O)NCC(N)=O)NC(=O)[C@H](CO)NC(=O)[C@H](C(C)C)NC1=O` [Compound 1019] ({CH2CO}-FYDWV[Bip]R[NMeA][dN]RLVSCG-NH2; thioether N-14), with 0.36 µM. Consider `CC(C)C[C@@H]1NC(=O)[C@H](Cc2c[nH]c3ccccc23)NC(=O)[C@H](CC(=O)O)NC(=O)[C@H](Cc2ccc(O)cc2)NC(=O)[C@H](Cc2ccccc2)NC(=O)CSC[C@@H](C(=O)N[C@@H](C)C(N)=O)NC(=O)[C@H]([C@@H](C)O)NC(=O)[C@H](CCCN)NC(=O)[C@H](CC(C)C)NC(=O)[C@H](CC(N)=O)NC(=O)[C@@H](C)NC(=O)[C@H](C)N(C)C(=O)[C@H](C(C)C)NC(=O)[C@H](Cc2ccc(-c3ccccc3)cc2)NC1=O` [Compound 1533] ({CH2CO}-FYDWL[Bip]V[NMeA][dA]NL[Orn]TCA-NH2; thioether N-14), for which the half-inhibitory concentration (IC50) under setting [1] worked out at 0.15 µM. On the same count and under the same terms, next, `CC(C)C[C@@H]1NC(=O)[C@H](CCN)NC(=O)[C@@H](CC(C)C)NC(=O)[C@H](C)N(C)C(=O)[C@H](CCCNC(N)=O)NC(=O)[C@H](Cc2ccc(-c3ccccc3)cc2)NC(=O)[C@H](C(C)C)NC(=O)[C@H](Cc2c[nH]c3ccccc23)NC(=O)[C@H](CC(=O)O)NC(=O)[C@H](Cc2ccc(C(=O)O)cc2)NC(=O)[C@H](CN)NC(=O)CSC[C@@H](C(=O)N[C@@H](C)C(N)=O)NC(=O)[C@H]([C@@H](C)O)NC(=O)[C@H](C(C)C)NC1=O` [Compound 1404] ({CH2CO}-[Dap][Phe(4-COOH)]DWV[Bip][Cit][NMeA][dL][Dab]LVTCA-NH2; thioether N-14): 0.12 µM.
